Among the data in PubChem BioAssay (NCI) are TGI values, retold here.

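These data come from cells grown in 96-well plates and exposed to compound for 48 hours at five concentrations. TGI is the concentration that stops growth completely.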 Some results are limits rather than exact numbers.

Test systems include T-47D breast; SK-MEL-2 melanoma; BT-549 breast; HCT-116 colon; SN12C renal; U251 CNS; HOP-92 NSCLC; SF-539 CNS; UACC-257 melanoma; OVCAR-4 ovarian.
What all share (assay): NCI-60 cell line screen, 48 h

On to `COc1ccc(CCN2C(=O)C(=O)C(C(=O)c3ccccc3)C2c2ccccc2)cc1OC` (configuration not stated), for which the TGI in the test on T-47D breast, in the test with SK-MEL-2 melanoma, in the test with BT-549 breast, with HCT-116 colon, with SN12C renal and with U251 CNS was greater than 100 µM in each case. For the same compound, the TGI in the test on HOP-92 NSCLC, in the test on SF-539 CNS and with UACC-257 melanoma was greater than 100 µM in each case.

As for `Nc1ccc(Oc2ccc(C3(c4ccc(Oc5ccc(N)c(O)c5)cc4)C4CC5CC(C4)CC3C5)cc2)cc1O`, the TGI in the test with OVCAR-4 ovarian was 24.9 µM; in the test on T-47D breast it was greater than 77.2 µM; in the test on SK-MEL-2 melanoma it was 3.88 µM; in the test with BT-549 breast, 5.27 µM; in the test on SN12C renal, 3.62 µM; with HOP-92 NSCLC, 8.94 µM. Also, the TGI came to 2.35 µM with SF-539 CNS and 5.91 µM with UACC-257 melanoma.

As to `COC(=O)C#CC1(O)C=CC(=O)C=C1`, the TGI in the test with OVCAR-4 ovarian is 17 µM; with T-47D breast, 3.74 µM; with SK-MEL-2 melanoma, 7.64 µM; in the test with BT-549 breast, 3.42 µM; in the test on HOP-92 NSCLC, 2.29 µM; with SF-539 CNS it was greater than 35.1 µM. Besides, in the test on UACC-257 melanoma, the TGI stood at 3.64 µM.

As for `CC(=O)OCC1OC(Sc2nc(-c3ccccc3)c(C#N)c(=O)n2C2OC(COC(C)=O)C(OC(C)=O)C(OC(C)=O)C2OC(C)=O)C(OC(C)=O)C(OC(C)=O)C1OC(C)=O` (configuration not stated), the TGI with T-47D breast, in the test with SK-MEL-2 melanoma, in the test with BT-549 breast, in the test with HCT-116 colon, in the test on SN12C renal and in the test with U251 CNS was greater than 100 µM each time. Besides, the TGI in the test on HOP-92 NSCLC, in the test with SF-539 CNS and with UACC-257 melanoma was greater than 100 µM throughout.

For the compound `COc1ccc2c(c1)SC1=Nc3sc4cc(OC)ccc4[n+]3CN12`, the TGI is 38.3 µM in the test with T-47D breast; 65.3 µM in the test on SK-MEL-2 melanoma; greater than 100 µM in the test on BT-549 breast; greater than 100 µM in the test with HCT-116 colon; greater than 100 µM with SN12C renal; 63.6 µM with U251 CNS. Besides, the TGI with HOP-92 NSCLC is 14.6 µM; in the test with SF-539 CNS, greater than 100 µM; with UACC-257 melanoma, greater than 100 µM.

For the compound `CC(=O)OCC1OC(NC(=S)Nn2c(-c3ccccc3)nc3ccccc3c2=O)C(OC(C)=O)C(OC(C)=O)C1OC(C)=O` (configuration not stated), the TGI is 60.2 µM with T-47D breast; 68.3 µM with SK-MEL-2 melanoma; greater than 100 µM with BT-549 breast; greater than 100 µM in the test on HCT-116 colon; greater than 100 µM in the test with SN12C renal; greater than 100 µM in the test with U251 CNS. Also, the TGI in the test with HOP-92 NSCLC, in the test with SF-539 CNS and in the test with UACC-257 melanoma was greater than 100 µM each time.

Regarding `C/C(=C/C(=O)N(C)c1ccccc1Cl)O[Si](C(C)C)(C(C)C)C(C)C`, the TGI is greater than 100 µM with OVCAR-4 ovarian; greater than 100 µM in the test on T-47D breast; 56.6 µM with BT-549 breast; 34.2 µM in the test with HCT-116 colon; 32.4 µM with SN12C renal; 38.7 µM in the test on U251 CNS. Besides, the TGI in the test on HOP-92 NSCLC was 31.1 µM; in the test with SF-539 CNS, 38.3 µM; in the test on UACC-257 melanoma, 66.4 µM.

In the case of `CSc1ccc(/C=C2\N=C(c3ccccc3)N(NC(=O)c3c(Cl)c(Cl)c(Cl)c(Cl)c3-c3nc4ccccc4[nH]3)C2=O)cc1`, the TGI was 25.6 µM with T-47D breast; greater than 100 µM in the test on SK-MEL-2 melanoma; greater than 100 µM in the test on BT-549 breast; 83.3 µM with HCT-116 colon; greater than 100 µM in the test with SN12C renal; 52.2 µM in the test on HOP-92 NSCLC. Also, the TGI with SF-539 CNS and in the test on UACC-257 melanoma was greater than 100 µM each time.

With `CC(C(=O)NCNC(=O)c1ccccc1)C(=O)NCc1ccccc1` (configuration not stated), the TGI with T-47D breast, with SK-MEL-2 melanoma, with BT-549 breast, with HCT-116 colon, with SN12C renal and in the test with U251 CNS was greater than 100 µM in each case. For the same compound, the TGI in the test with HOP-92 NSCLC, in the test with SF-539 CNS and in the test on UACC-257 melanoma was greater than 100 µM each time.

For `CC(C)=CCN1c2ccccc2[C@@]2(CC=C(C)C)CCN(C)[C@@H]12`, the TGI with OVCAR-4 ovarian is greater than 100 µM; with T-47D breast, 50.3 µM; with SK-MEL-2 melanoma, 33.3 µM; with BT-549 breast, greater than 100 µM; with HCT-116 colon, 73.2 µM; in the test with SN12C renal it was greater than 100 µM. Also, the TGI was 40.5 µM with U251 CNS, greater than 100 µM with HOP-92 NSCLC and 64.9 µM with SF-539 CNS.

Turning to `CC(=O)OC(C(=O)NNC(=O)OC(C)(C)C)c1ccccc1` (configuration not stated), the TGI with T-47D breast, in the test with SK-MEL-2 melanoma, in the test with BT-549 breast, with SN12C renal, in the test on U251 CNS and with HOP-92 NSCLC was greater than 100 µM in each case. In the test with SF-539 CNS, this compound showed a TGI greater than 100 µM.

Regarding `CCOC(=O)c1nc2ccccc2nc1Oc1ccc(F)cc1`, the TGI in the test on T-47D breast, with SK-MEL-2 melanoma, in the test with BT-549 breast, with HCT-116 colon, in the test on SN12C renal and in the test with U251 CNS was greater than 100 µM each time. Besides, the TGI with HOP-92 NSCLC, in the test on SF-539 CNS and in the test with UACC-257 melanoma was greater than 100 µM in each case.
